The values that follow come from patent US6534514B1, “Kappa opioid receptor antagonists” (Regents of the University of Minnesota, priority 1993, dated 2003).

One test addresses T1, kappa opioid receptors (Cavia porcellus, UniProt P41144).
T1 construct: a strip of longitudinal muscle with the myenteric plexus attached was prepared; from tissue; host or cells: guinea pig ileal longitudinal muscle with myenteric plexus (Dunkin-Hartley males)
The test can be described thus: Guinea pig ileal longitudinal muscle (GPI), antagonism of ethylketazocine (EK). The test is classed as cell-based. As to conditions: for Selectivity κ/μ: GPI EK versus GPI morphine; for Selectivity κ/δ: GPI EK versus MVD DADLE; for Kb: 15 min incubation, Ke=[antagonist]/(IC50 ratio-1); for kappa antagonist potency compared with norBNI: GPI, EK. Here is the method: (§1) Physiological data for guinea pig ileal longitudinal muscle (GPI) was obtained by the methodology of H. P. Rang, “Stimulant Actions of Volatile Anaesthetics on Smooth Muscle,” Brit. […] In vivo assays were done s.c. on mice.
(§2) 1. Guinea Pig Ileal Longitudinal Muscle (GPI). Ilea from guinea pigs were taken approximately 10 cm from the ileocecal junction, and a strip of longitudinal muscle with the myenteric plexus attached was prepared by the method of […] et al., Brit. […] A 1 cm portion of this strip was then mounted between two platinum electrodes placed in a 10 ml organ bath and connected to an isometric transducer; contractions were recorded on a polygraph. Contractions of the ileal strip were initiated by supramaximal rectangular pulses in all preparations (80 V of 0.5 ms duration at a frequency of 0.1 Hz). […] The organ bath was maintained at 36°-37° C. The longitudinal muscle strip was allowed to equilibrate with continuous stimulation for a minimum of 90 min. Cumulative concentration-response curves were determined after drugs were added to the bath in preselected amounts and washed out with buffer after noting their maximum effects.
(§3) Concentration-response curves were obtained in the absence (control) and the presence of the antagonist are expressed as IC50 values. The IC50 ratio represents the IC50 in the presence of the antagonist divided by the control IC50 value in the same tissue. Therefore, a high IC50 ratio represents a correspondingly high degree of antagonism at a particular receptor. This IC50 ratio was employed to calculate the Ke value using the equation Ke=[antagonist]/(IC50 ratio-1). Therefore, a low Ke represents a correspondingly high degree of binding at a particular receptor.

In a further test the target is mu opioid receptors. As to conditions: agonist morphine. Here is the method:
as §1, §2, §3

The target in another test is delta opioid receptors (Mus musculus, UniProt P32300). The test can be described thus: Mouse vas deferens (MVD), antagonism of DADLE (D). The test is classed as cell-based. More on the design: Both vasa deferentia were dissected out of mice and mounted singly; from tissue; host or cells: mouse vas deferens (Swiss-Webster males) for A3; whole mouse in vivo for A7. The settings on record: antagonist 100 nM; agonist DADLE. On the procedure:
2. Mouse Vas Deferens (MVD). This assay was performed according to the description by G. Henderson et al., Brit. […] Both vasa deferentia were dissected out of mice and mounted singly through two platinum ring electrodes in a 10 ml organ bath. The bath contained Krebs bicarbonate solution that was continuously bubbled with 95% O2 and 5% CO2. The organ bath was maintained at 37° C. The tissue was attached to an isometric transducer and stimulated transmurally with rectangular pulses ([…], 1 ms duration, supramaximal voltage). Drugs were added cumulatively to the bath in preselected amounts and washed out after noting their maximum effects.
as §3

Test [1] deals with rats that were selectively bred for high voluntary ethanol drinking. The settings on record: compared to peptidyl delta-opioid receptor antagonists; cited from earlier work.
The test system of the next test is rat model of alcoholism. The settings on record: cited from earlier work.
The target in the next test is delta opioid receptor (Rattus norvegicus, UniProt P33533). The settings on record: cited from earlier work.
The conditions of test [2]: recovering alcoholics; cited from earlier work.
Setting [3] is: antagonist 100 nM, agonist ethylketazocine.
Setting [4] is: antagonist 100 nM, IC50 agonist + antagonist/IC50 agonist, agonist ethylketazocine.
Setting [5] is: antagonist 10 nM, agonist ethylketazocine.

Read-outs that look alike come from different tables or passages of the source.

delta opioid receptors, sequence (P32300 whole entry): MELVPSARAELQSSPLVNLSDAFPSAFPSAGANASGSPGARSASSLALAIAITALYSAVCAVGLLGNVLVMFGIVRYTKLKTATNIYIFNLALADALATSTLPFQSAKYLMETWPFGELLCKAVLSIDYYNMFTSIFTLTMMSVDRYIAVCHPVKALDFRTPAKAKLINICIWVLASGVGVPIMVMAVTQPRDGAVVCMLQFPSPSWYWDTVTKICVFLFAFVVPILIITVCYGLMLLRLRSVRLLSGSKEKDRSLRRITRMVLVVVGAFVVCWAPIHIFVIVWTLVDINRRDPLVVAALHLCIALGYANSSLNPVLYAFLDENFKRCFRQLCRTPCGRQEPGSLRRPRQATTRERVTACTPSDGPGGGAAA
T1 sequence (P41144 whole entry): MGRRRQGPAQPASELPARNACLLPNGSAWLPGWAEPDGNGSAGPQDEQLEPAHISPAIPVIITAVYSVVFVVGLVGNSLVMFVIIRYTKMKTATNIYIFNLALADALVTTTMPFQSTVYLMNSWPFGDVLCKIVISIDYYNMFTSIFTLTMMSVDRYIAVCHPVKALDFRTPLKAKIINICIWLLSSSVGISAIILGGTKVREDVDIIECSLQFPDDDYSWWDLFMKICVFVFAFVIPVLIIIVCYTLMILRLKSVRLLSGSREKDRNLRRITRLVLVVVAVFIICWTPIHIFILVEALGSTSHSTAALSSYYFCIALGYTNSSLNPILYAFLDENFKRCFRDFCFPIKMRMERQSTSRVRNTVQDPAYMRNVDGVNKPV
delta opioid receptor, sequence (P33533 whole entry): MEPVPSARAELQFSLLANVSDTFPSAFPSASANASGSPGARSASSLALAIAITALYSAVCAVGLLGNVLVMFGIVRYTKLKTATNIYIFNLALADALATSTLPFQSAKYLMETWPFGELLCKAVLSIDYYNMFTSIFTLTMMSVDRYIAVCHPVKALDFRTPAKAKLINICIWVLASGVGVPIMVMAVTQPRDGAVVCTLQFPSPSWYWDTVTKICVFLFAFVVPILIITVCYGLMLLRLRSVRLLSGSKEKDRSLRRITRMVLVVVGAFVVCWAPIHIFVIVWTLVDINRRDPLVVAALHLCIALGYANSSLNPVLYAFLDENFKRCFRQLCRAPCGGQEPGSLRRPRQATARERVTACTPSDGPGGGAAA

Turning to “17-(Cyclopropylmethyl)-6,7-dehydro-4,5α-epoxy-3,14-dihydroxy-5′-[(N^2-propanamidino)methyl]-6,7-2′,3′-indolomorphinan Dihydrochloride [Compound 1]”, at kappa opioid receptors, the “Selectivity κ/μ” value is 14 and the “Selectivity κ/δ” value amounted to 69. In addition, the Kb on kappa opioid receptors (setting [3]) stood at 0.66 nM. For the same compound, on kappa opioid receptors (setting [4]), the “IC50 ratio, EK (GPI)” value amounted to 159 ± 43. Moreover, on mu opioid receptors (antagonist 100 nM), the “IC50 ratio, M (GPI)” value was determined as 11.3 ± 2.6 and the “Ke, M (GPI)” value was 9.71 nM. In addition, the “IC50 ratio, D (MVD)” value at delta opioid receptors was determined as 2.28 ± 0.57.

In the case of “17-(Cyclopropylmethyl)-6,7-dehydro-4,5α-epoxy-3,14-dihydroxy-5′-[(N^2-butyramidino)methy]-6,7-2′,3′-indolomorphinan Dihydrochloride [Compound 5]”, on kappa opioid receptors, the “Selectivity κ/μ” value is 10, the “Selectivity κ/δ” value is 62 and the “kappa antagonist potency compared with norBNI” value is “more potent”. In addition, the Kb at kappa opioid receptors (setting [3]) was determined as 0.54 nM. Also, the “IC50 ratio, EK (GPI)” value at kappa opioid receptors (setting [4]) worked out at 185 ± 49. Besides, on mu opioid receptors (antagonist 100 nM), the “IC50 ratio, M (GPI)” value is recorded as 18.2 ± 3.9 and the “Ke, M (GPI)” value was found to be 5.84 nM. Further, on delta opioid receptors, the “IC50 ratio, D (MVD)” value is 3.00 ± 0.51.

As for “17-(Cyclopropylmethyl)-6,7-dehydro-4,5α-epoxy-3,14-dihydroxy-5′-[(N^2-acetamidino)methyl]-6,7-2′,3′-indolomorphinan Dihydrochloride [Compound 3]”, on kappa opioid receptors, the “Selectivity κ/μ” value came to 9 and the “Selectivity κ/δ” value stood at 44. The Kb at kappa opioid receptors (setting [3]) is 0.81 nM. Also, the “IC50 ratio, EK (GPI)” value on kappa opioid receptors (setting [4]) amounted to 124 ± 33. In addition, at mu opioid receptors (antagonist 100 nM), the “IC50 ratio, M (GPI)” value stood at 13.4 ± 2.2 and the “Ke, M (GPI)” value was determined as 8.04 nM. Besides, at delta opioid receptors, the “IC50 ratio, D (MVD)” value was found to be 2.81 ± 0.62.

For the compound “17-(Cyclopropylmethyl)-6,7-dehydro-4,5α-epoxy-3,14-dihydroxy-5′-[(N^2-3-methylpentanamidino)methyl]-6,7-2′,3′-indolomorphinan Dihydrochloride [Compound 2]”, on kappa opioid receptors, the “Selectivity κ/μ” value is given as 12, the “Selectivity κ/δ” value is on record as 310 and the “kappa antagonist potency compared with norBNI” value is recorded as “more potent”. Further, at kappa opioid receptors (setting [3]), the Kb turned out to be 0.25 nM. The “IC50 ratio, EK (GPI)” value at kappa opioid receptors (setting [4]) is on record as 394 ± 97. On mu opioid receptors (antagonist 100 nM), the “IC50 ratio, M (GPI)” value came out at 31.6 ± 10.7 and the “Ke, M (GPI)” value turned out to be 3.27 nM. Further, at delta opioid receptors, the “IC50 ratio, D (MVD)” value was 1.19 ± 0.51.

With “17-(Cyclopropylmethyl)-6,7-dehydro-4,5α-epoxy-3,14-dihydroxy-5′-[N-(β-dimethylamino)ethylcarboxamido]-6,7-2′,3′-indolomorphinan Dihydrochloride [Compound 45]”, at kappa opioid receptors, the “Selectivity κ/μ” value was 6 and the “Selectivity κ/δ” value worked out at 117. For the same compound, on kappa opioid receptors (setting [3]), the Kb worked out at 0.568 nM. Besides, the “IC50 ratio, EK (GPI)” value on kappa opioid receptors (setting [4]) stood at 177 ± 54. At mu opioid receptors (antagonist 100 nM), the “IC50 ratio, M (GPI)” value is given as 30.3 ± 3.6 and the “Ke, M (GPI)” value was 3.41 nM. Besides, the “IC50 ratio, D (MVD)” value at delta opioid receptors is 1.51 ± 0.42.

As to “17-(Cyclopropylmethyl)-6,7-dehydro-4,5α-epoxy-3,14-dihydroxy-5′-[N^2-(N,N-dimethylglycinamidino)methyl]-6,7-2′,3′-indolomorphinan Trihydrochloride [Compound 42]”, at kappa opioid receptors, the “Selectivity κ/μ” value was determined as 55, the “Selectivity κ/δ” value is 111 and the “kappa antagonist potency compared with norBNI” value is on record as “more potent”. For the same compound, at kappa opioid receptors (GPI/MVD), the “kappa selectivity compared with norBNI” value is on record as “more selective”; the “potency and selectivity compared with norBNI” value is “more potent and selective”. The Kb at kappa opioid receptors (setting [3]) is listed as 0.183 nM. Besides, on kappa opioid receptors (setting [4]), the “IC50 ratio, EK (GPI)” value is given as 547 ± 125. On mu opioid receptors (antagonist 100 nM), the “IC50 ratio, M (GPI)” value came to 10.0 ± 0.4 and the “Ke, M (GPI)” value is reported as 11.1 nM. On delta opioid receptors, the “IC50 ratio, D (MVD)” value stood at 4.91 ± 1.38 and the “Ke, D (MVD)” value is given as 25.6 nM.

In the case of `Oc1ccc2c3c1O[C@H]1c4[nH]c5ccccc5c4C[C@@]4(O)[C@@H](C2)N(CC2CC2)CC[C@]314` [NTI, naltrindole], the “suppression of ethanol drinking” value in test [1] is reported as “unexpectedly prolonged suppression of ethanol drinking”.

Take `Oc1ccc2c3c1O[C@H]1c4oc5ccccc5c4C[C@@]4(O)[C@@H](C2)N(CC2CC2)CC[C@]314` [NTB]: the “suppression of ethanol drinking” value in test [1] was “unexpectedly prolonged suppression of ethanol drinking”.

Take `C=CCN1CC[C@]23c4c5ccc(O)c4O[C@H]2C(=O)CC[C@@]3(O)[C@H]1C5` [Naloxone, naloxone]: in the test with rat model of alcoholism, the “ethanol and water intake” value is “suppress ethanol but not water intake”.

For the compound “17-(Cyclopropylmethyl)-6,7-dehydro-4,5α-epoxy-3,14-dihydroxy-5 ′-[N^2-(4-dimethylaminobutyrylamidino)methyl]-6,7-2′,3′-indolomorphinan Trihydrochloride [Compound 44]”, at kappa opioid receptors, the “Selectivity κ/μ” value is listed as 61, the “Selectivity κ/δ” value was 250 and the “kappa antagonist potency compared with norBNI” value is reported as “more potent”. Besides, on kappa opioid receptors (GPI/MVD), the “kappa selectivity compared with norBNI” value is listed as “more selective”; the “potency and selectivity among the compounds” value was “greatest poteny and selectivity”; the “potency and selectivity compared with norBNI” value is “more potent and selective”. Besides, at kappa opioid receptors (setting [3]), the Kb is 0.147 nM. Also, the “IC50 ratio, EK (GPI)” value at kappa opioid receptors (setting [4]) was found to be 679 ± 273. At mu opioid receptors (antagonist 100 nM), the “IC50 ratio, M (GPI)” value is 12.1 ± 3.4 and the “Ke, M (GPI)” value was 9.01 nM. The “IC50 ratio, D (MVD)” value on delta opioid receptors was 2.71 ± 0.44.

Take `Oc1ccc2c3c1OC1c4[nH]c5c(c4CC4(O)C(C2)N(CC2CC2)CC[C@]314)C[C@@]1(O)C2Cc3ccc(O)c4c3[C@@]1(CCN2CC1CC1)[C@H]5O4` (some centres unmarked) [norBinaltorphimine, reference compound]: the antagonist equilibrium constant (Kb) at kappa opioid receptors (setting [3]) came to 0.56 nM. In addition, in the test on mu opioid receptors (antagonist 100 nM), the “Ke, M (GPI)” value is recorded as 14 nM.

With “N,N-diallyl-Tyr-Aib-Aib-Phe-Leu-OH [ICI 174864]”, the duration of action result on delta opioid receptor (ethanol drinking) is “very short duration of action”. Besides, the ethanol drinking result on delta opioid receptor (in vivo) is on record as “strongly inhibits ethanol drinking”.

Take “17-(Cyclopropylmethyl)-6,7-dehydro-4,5α-epoxy-3,14-dihydroxy-5′-[N-(β-diethylamino)ethylcarboxyamido]-6,7-2′,3′-indolomorphinan Dihydrochloride [Compound 38]”: on kappa opioid receptors, the “Selectivity κ/μ” value was 16, the “Selectivity κ/δ” value was found to be 329 and the “kappa antagonist potency compared with norBNI” value was “more potent”. For the same compound, on kappa opioid receptors (setting [5]), the “IC50 ratio, EK (GPI)” value was found to be 31.8 ± 7.7 and the “Ke, EK (GPI)” value is reported as “(10 nm) 0.320 nM”. Moreover, at mu opioid receptors (antagonist 50 nM), the “IC50 ratio, M (GPI)” value is 17.1 ± 2.1 and the “Ke, M (GPI)” value is recorded as “(50 nm) 3.14 nM”. In addition, the “IC50 ratio, D (MVD)” value on delta opioid receptors amounted to 1.95 ± 0.56.

For the compound `O=C1CC[C@@]2(O)[C@H]3Cc4ccc(O)c5c4[C@@]2(CCN3CC2CC2)[C@H]1O5` [naltrexone], the incidence of relapse result in test [2] was “reduce the incidence of relapse”.

With “17-(Cyclopropylmethyl)-6,7-dehydro-4,5α-epoxy-3,14-dihydroxy-51′-[(4-dimethylaminobutyryl)aminomethyl]-6,7-2′,3′-indolomorphinan Dihydrochloride [Compound 43]”, on kappa opioid receptors, the “Selectivity κ/μ” value worked out at 10, the “Selectivity κ/δ” value worked out at 166 and the “kappa antagonist potency compared with norBNI” value was “more potent”. Further, the antagonist dissociation constant (Kb) at kappa opioid receptors (setting [3]) amounted to 0.505 nM. Also, the “IC50 ratio, EK (GPI)” value on kappa opioid receptors (setting [4]) is listed as 199 ± 62. At mu opioid receptors (antagonist 100 nM), the “IC50 ratio, M (GPI)” value turned out to be 19.0 ± 6.2 and the “Ke, M (GPI)” value is on record as 5.56 nM. Also, the “IC50 ratio, D (MVD)” value at delta opioid receptors is reported as 1.20 ± 0.72.

As usually defined, the Kb is the affinity of an antagonist, worked out from how it opposes an agonist.
